In ChEMBL document CHEMBL4396928, “Discovery of Selective, Orally Bioavailable Pyrazolopyridine Inhibitors of Protein Kinase Cθ (PKCθ) That Ameliorate Symptoms of Experimental Autoimmune Encephalomyelitis” (ACS Med Chem Lett, 2019):
≈ marks a conversion by molar mass, not a printed value. Calls of active or inactive are those of the source. The calls are words filed in the database; no cut-off is given here.

Legend:
[1] = Lipophilicity, logD of compound; type: physicochemical; details: octanol/water
[2] = Permeability across apical to basolateral side in human Caco2 cells measured at 120 mins by LC-MS/MS analysis; type: ADME, cell-based; details: Caco-2, read-out: permeability
[3] = target: Voltage-gated inwardly rectifying potassium channel KCNH2 (Homo sapiens, UniProt Q12809); assay: Inhibition of human ERG
Voltage-gated inwardly rectifying potassium channel KCNH2, sequence (Q12809 whole entry): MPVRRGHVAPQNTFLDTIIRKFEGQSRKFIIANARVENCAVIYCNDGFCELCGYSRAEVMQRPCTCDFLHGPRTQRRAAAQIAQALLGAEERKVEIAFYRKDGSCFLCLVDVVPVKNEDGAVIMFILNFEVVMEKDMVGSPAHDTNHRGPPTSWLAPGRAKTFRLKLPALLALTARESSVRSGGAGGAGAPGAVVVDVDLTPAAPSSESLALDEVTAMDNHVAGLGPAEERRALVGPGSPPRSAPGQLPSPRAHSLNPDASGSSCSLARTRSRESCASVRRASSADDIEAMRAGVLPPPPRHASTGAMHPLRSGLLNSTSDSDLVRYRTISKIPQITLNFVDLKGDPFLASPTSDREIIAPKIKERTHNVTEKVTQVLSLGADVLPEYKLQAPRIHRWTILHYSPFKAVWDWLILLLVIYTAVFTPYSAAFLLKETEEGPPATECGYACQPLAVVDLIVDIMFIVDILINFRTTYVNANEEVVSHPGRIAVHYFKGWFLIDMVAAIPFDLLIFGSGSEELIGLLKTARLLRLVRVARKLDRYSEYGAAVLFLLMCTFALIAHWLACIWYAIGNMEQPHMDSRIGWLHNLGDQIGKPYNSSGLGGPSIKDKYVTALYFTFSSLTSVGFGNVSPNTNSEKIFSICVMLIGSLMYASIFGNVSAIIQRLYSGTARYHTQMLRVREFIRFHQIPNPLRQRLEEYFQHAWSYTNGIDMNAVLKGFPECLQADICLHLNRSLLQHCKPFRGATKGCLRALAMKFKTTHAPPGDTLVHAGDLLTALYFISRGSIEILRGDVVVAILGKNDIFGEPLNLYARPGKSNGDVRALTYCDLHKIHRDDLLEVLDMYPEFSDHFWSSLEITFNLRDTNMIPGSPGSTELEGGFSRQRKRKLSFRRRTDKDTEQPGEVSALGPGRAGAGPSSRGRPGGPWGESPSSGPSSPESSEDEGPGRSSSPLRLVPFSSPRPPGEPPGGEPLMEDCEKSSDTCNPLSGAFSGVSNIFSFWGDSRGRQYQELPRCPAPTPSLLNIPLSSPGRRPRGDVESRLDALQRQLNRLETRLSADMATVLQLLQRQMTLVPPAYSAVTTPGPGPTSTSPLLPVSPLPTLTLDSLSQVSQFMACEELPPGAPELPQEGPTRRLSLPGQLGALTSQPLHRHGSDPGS

[4] = target: Protein kinase C theta type (Homo sapiens, UniProt Q04759); assay: Inhibition of human recombinant full length His tagged PKC theta expressed in baculovirus using ERMRPRKRQGSVRRRV peptide as substrate incubated for 60 mins in presence of [33P] gammaATP by microbeta liquid scintillation counter
Protein kinase C theta type, sequence (Q04759 whole entry): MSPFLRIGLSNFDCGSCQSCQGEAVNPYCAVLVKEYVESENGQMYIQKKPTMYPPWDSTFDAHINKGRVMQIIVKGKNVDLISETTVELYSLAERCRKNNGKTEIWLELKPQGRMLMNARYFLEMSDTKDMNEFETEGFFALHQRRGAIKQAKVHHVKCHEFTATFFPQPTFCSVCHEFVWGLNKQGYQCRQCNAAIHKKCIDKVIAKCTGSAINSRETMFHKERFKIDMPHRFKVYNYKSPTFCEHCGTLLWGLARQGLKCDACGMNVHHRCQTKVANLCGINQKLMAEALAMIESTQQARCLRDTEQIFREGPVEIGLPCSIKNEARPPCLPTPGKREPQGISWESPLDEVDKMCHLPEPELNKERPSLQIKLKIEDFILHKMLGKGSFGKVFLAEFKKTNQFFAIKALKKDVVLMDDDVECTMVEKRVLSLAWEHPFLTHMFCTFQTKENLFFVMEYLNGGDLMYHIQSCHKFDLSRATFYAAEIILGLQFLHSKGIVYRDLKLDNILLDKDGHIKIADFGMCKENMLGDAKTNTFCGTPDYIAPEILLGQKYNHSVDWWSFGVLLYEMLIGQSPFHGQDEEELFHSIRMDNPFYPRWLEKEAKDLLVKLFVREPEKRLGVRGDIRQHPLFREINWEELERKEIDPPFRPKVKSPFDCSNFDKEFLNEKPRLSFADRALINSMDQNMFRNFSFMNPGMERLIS

[5] = target: Protein kinase C alpha type (Homo sapiens, UniProt P17252); assay: Inhibition of recombinant full length PKC alpha (unknown origin) using RRRRRKGSFKRKA peptide as substrate measured after 15 mins in presence of ATP by spectrophotometric analysis
[6] = target: Protein kinase C delta type (Homo sapiens, UniProt Q05655); assay: Inhibition of recombinant full length PKC delta (unknown origin) using ERMRPRKR- QGSVRRRV peptide as substrate measured after 15 mins in presence of ATP by spectrophotometric analysis
Protein kinase C delta type, sequence (Q05655 whole entry): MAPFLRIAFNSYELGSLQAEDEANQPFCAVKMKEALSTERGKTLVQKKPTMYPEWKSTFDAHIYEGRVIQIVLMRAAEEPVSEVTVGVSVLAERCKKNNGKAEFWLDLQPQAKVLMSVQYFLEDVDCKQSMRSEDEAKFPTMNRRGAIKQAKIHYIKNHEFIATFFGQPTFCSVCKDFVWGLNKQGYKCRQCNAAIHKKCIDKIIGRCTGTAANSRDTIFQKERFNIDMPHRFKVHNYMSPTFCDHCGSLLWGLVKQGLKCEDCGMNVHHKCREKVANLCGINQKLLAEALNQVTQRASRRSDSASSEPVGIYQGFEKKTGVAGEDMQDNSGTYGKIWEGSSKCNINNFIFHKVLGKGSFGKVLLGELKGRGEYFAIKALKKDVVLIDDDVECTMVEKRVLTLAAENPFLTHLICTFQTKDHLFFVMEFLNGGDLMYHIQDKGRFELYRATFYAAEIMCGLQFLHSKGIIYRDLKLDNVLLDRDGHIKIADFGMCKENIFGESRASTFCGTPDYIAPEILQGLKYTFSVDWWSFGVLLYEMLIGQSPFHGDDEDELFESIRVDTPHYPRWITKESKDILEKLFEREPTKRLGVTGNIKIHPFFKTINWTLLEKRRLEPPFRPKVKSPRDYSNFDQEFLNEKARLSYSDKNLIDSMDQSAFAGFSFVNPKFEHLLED

[7] = Clearance in iv dosed rat; type: ADME, organism-based; details: in vivo
[8] = Half-life in iv dosed rat; type: ADME, organism-based; details: in vivo
[9] = tested on: PBMC; assay: Inhibition of IL-2 secretion from human PBMC cells stimulated with anti-CD3/CD28 measured after 24 hrs by bead-based FLISA; type: functional, cell-based
[10] = Efflux ratio of permeability in human Caco2 cells by LC-MS/MS analysis; type: ADME, cell-based; details: Caco-2
[11] = Clerance in iv dosed dog; type: ADME, organism-based, Canis lupus familiaris; details: in vivo
[12] = Half-life in iv dosed dog; type: ADME, organism-based, Canis lupus familiaris; details: in vivo
[13] = Half-life in iv dosed cynomolgus monkey; type: ADME, organism-based, Macaca fascicularis; details: in vivo
[14] = Clearance in iv dosed cynomolgus monkey; type: ADME, organism-based, Macaca fascicularis; details: in vivo
[15] = Oral bioavailability in mouse; type: ADME, organism-based; details: in vivo
[16] = Oral bioavailability in rat; type: ADME, organism-based; details: in vivo
[17] = Thermodynamic solubility of compound in sodium phosphate buffer at pH 7.4; type: physicochemical; details: read-out: Therm_solubility
[18] = Stability of compound in human liver microsomes assessed as compound remaining at 30 mins; type: ADME, Microsome; details: read-out: Stability
[19] = Stability of compound in rat liver microsomes assessed as compound remaining at 30 mins; type: ADME, Microsome; details: read-out: Stability
[20] = tested on: HFL1; assay: Cytotoxicity against human HFL1 cells assessed as growth inhibition measured after 48 hrs by 3H-thymidine incorporation assay; type: cell-based
[21] = Dissociation constant, pKa of compound; type: physicochemical
[22] = Unbound drug level in brain of BALB/c mouse at 50 mg/kg, po measured after 3 hrs; type: ADME, organism-based; details: in vivo
[23] = Unbound drug level in brain of BALB/c mouse at 100 mg/kg, po measured after 3 hrs; type: ADME, organism-based; details: in vivo
[24] = target: Protein kinase C beta type (Homo sapiens, UniProt P05771); assay: Inhibition of human PKC beta
[25] = tested on: Mus musculus; assay: Anti-inflammatory activity in C57BL/6 mouse model of MOG (35 to 55 residues)/pertussis toxin/complete Freund's adjuvant-induced autoimmune encephalomyelitis assessed as reduction in development of clinical symptoms at 50 mg/kg, po bid starting from day 8 post immunization upto 10 days; type: functional, organism-based
[26] = tested on: Mus musculus; assay: In vivo inhibition of Il-2 production in BALB/c mouse at 25 to 100 mg/lg, po measured after 3 hrs; type: functional, organism-based
[27] = Inhibition of CD3/CD28 stimulated IL-17 secretion from human Th17 cells measured after 24 hrs by ELISA
[28] = target: T1, Cytochrome P450 3A4 (Homo sapiens, UniProt P08684); assay: Inhibition of CYP3A4 (unknown origin) at 22 uM; type: ADME
T1 sequence (P08684 whole entry): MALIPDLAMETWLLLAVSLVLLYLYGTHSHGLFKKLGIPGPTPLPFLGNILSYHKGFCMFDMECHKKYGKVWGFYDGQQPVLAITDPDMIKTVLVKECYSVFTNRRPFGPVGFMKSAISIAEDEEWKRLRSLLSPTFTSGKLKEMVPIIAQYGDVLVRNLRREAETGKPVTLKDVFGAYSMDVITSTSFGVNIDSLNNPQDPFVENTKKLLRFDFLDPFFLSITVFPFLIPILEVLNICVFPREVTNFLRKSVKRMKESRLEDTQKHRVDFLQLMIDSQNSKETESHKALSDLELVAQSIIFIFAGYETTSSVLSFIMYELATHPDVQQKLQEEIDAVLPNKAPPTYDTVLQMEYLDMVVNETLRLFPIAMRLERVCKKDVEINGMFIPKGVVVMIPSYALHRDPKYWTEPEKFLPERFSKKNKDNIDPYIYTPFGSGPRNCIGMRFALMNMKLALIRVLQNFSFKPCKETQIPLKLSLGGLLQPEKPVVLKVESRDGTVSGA

[29] = target: T2, Cytochrome P450 2C9 (Homo sapiens, UniProt P11712); assay: Inhibition of CYP2C9 (unknown origin) at > 30 uM; type: ADME
T2 sequence (P11712 whole entry): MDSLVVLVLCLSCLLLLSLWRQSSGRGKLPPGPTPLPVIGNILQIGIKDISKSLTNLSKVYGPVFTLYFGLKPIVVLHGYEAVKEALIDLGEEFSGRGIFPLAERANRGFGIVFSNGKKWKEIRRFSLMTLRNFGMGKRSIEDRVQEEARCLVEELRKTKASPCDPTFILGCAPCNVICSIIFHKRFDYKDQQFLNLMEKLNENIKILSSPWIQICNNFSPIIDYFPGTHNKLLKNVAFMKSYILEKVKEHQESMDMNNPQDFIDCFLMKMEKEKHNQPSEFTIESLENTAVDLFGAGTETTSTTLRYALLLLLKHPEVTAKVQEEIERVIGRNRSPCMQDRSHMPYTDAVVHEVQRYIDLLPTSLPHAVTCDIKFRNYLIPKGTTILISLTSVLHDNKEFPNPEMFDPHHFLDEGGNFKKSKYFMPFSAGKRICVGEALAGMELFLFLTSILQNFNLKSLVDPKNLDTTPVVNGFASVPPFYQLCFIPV

[30] = target: T3, Cytochrome P450 2D6 (Homo sapiens, UniProt P10635); assay: Inhibition of CYP2D6 (unknown origin) at > 30 uM; type: ADME
T3 sequence (P10635 whole entry): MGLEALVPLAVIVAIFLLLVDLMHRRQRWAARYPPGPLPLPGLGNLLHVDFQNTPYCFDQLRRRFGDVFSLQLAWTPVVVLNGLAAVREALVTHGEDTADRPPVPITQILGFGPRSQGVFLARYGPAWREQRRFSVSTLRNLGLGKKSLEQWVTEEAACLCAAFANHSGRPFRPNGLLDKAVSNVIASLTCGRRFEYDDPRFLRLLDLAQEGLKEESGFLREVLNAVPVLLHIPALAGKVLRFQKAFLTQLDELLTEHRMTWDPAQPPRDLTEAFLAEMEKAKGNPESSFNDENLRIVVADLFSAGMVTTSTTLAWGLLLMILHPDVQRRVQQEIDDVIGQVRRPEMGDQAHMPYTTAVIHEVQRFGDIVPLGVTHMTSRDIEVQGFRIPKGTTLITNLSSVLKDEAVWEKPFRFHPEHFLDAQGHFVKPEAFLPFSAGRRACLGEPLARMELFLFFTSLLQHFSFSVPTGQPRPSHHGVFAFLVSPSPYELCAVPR

[31] = target: T2, Cytochrome P450 2C9; assay: Inhibition of CYP2C9 (unknown origin) at 4 uM; type: ADME
[32] = target: T3, Cytochrome P450 2D6; assay: Inhibition of CYP2D6 (unknown origin) at 8 uM; type: ADME
[33] = target: T1, Cytochrome P450 3A4; assay: Inhibition of CYP3A4 (unknown origin) at 16 uM; type: ADME
[34] = target: cAMP-dependent protein kinase catalytic subunit alpha (Homo sapiens, UniProt P17612); assay: Inhibition of protein kinase A (unknown origin) using Kemptide (LRRASLG) as substrate incubated for 15 mins in presence of ATP by spectrophotometric analysis
[35] = target: Glycogen synthase kinase-3 beta (Homo sapiens, UniProt P49841); assay: Inhibition of GSK-3beta (unknown origin) using HSSPHQS(PO3H2)EDEEE peptide as substrate measured after 15 mins in presence of ATP by spectrophotometric analysis
[36] = target: Rho-associated protein kinase (Homo sapiens, UniProt O75116+Q13464); assay: Inhibition of ROCK (unknown origin) using Myelin Basic Protein as substrate incubated for 60 mins in presence of [33P] gammaATP by microbeta liquid scintillation counter; type: protein assay
[37] = target: T4, Tyrosine-protein kinase JAK3 (Homo sapiens, UniProt P52333); assay: Inhibition of JAK3 (unknown origin)
T4 sequence (P52333 whole entry): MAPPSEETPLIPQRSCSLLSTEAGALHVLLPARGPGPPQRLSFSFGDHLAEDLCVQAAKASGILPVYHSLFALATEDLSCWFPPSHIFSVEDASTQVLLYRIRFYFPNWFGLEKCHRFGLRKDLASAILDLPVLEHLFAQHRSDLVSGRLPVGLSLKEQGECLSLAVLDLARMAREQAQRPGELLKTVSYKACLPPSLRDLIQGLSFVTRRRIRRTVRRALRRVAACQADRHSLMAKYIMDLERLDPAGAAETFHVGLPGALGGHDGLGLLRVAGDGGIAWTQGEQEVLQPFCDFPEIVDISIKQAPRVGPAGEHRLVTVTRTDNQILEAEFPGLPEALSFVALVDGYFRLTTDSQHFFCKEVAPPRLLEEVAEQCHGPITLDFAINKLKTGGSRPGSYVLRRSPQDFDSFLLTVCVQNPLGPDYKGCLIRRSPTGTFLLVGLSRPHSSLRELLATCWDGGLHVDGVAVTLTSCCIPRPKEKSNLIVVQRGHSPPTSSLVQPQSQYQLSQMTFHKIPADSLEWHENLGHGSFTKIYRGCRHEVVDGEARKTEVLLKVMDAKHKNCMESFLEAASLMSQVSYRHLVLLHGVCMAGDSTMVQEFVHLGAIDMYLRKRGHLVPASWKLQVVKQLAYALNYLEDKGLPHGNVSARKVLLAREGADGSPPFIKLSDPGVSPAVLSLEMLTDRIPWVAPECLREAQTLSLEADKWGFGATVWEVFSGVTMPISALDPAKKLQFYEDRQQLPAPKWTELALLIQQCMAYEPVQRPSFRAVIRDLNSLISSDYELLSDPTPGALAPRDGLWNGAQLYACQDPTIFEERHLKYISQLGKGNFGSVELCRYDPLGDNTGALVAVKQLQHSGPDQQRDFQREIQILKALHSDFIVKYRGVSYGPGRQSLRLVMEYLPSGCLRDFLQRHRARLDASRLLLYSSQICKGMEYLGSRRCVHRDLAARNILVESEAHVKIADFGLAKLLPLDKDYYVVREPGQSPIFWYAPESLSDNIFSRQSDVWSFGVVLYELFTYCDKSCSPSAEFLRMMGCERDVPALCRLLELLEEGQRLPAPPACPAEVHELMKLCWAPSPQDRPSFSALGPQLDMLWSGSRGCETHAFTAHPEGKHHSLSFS

[38] = target: T5, Receptor-type tyrosine-protein kinase FLT3 (Homo sapiens, UniProt P36888); assay: Inhibition of FLT3 (unknown origin) using polyE4Y peptide as substrate incubated for 60 mins in presence of [33P] gammaATP by microbeta liquid scintillation counter
T5 sequence (P36888 whole entry): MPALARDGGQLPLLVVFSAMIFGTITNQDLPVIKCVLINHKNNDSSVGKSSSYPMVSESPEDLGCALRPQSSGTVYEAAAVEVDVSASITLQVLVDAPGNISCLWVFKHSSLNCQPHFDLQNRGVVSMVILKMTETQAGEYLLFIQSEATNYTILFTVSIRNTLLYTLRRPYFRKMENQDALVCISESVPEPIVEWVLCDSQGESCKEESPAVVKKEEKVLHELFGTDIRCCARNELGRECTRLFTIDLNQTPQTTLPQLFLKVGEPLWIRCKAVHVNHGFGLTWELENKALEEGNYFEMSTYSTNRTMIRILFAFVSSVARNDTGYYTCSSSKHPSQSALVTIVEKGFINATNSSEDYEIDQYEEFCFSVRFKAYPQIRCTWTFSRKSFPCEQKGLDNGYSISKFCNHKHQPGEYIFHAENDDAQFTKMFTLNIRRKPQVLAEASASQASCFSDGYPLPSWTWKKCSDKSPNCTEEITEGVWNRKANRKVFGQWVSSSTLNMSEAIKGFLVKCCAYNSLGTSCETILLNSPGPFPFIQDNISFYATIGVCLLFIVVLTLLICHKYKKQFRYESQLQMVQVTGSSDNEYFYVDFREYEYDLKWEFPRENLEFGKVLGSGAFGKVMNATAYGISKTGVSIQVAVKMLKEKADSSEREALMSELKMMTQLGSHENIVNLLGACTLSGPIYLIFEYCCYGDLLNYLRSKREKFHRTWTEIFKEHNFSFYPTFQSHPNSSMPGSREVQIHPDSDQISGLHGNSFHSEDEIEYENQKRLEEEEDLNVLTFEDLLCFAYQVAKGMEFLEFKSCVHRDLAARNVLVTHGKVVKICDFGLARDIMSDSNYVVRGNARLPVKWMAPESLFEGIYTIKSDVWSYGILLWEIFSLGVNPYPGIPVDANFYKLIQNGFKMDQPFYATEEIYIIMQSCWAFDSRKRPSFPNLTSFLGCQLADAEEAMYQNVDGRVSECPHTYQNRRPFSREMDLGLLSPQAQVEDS

[39] = target: Tyrosine-protein kinase JAK2 (Homo sapiens, UniProt O60674); assay: Inhibition of JAK2 (unknown origin) using polyE4Y peptide as substrate incubated for 60 mins in presence of [33P] gammaATP by microbeta liquid scintillation counter
[40] = Unbound hepatic clearance in rat hepatocytes assessed per million cells; type: ADME, cell-based, Hepatocyte
[41] = Unbound hepatic clearance in human hepatocytes assessed per million cells; type: ADME, cell-based, Hepatocyte
[42] = Volume of distribution at steady state in iv dosed rat; type: ADME, organism-based; details: in vivo, read-out: Vdss

| SMILES | logD [1] | IC50 [3] [nM] | Ki [4] [nM] | Ki [5] [nM] | Ki [6] [nM] | clearance [7] [mL/min/kg] | half-life [8] [h] | IC50 [9] [nM] | remaining at 0.5 h [18] [%] | remaining at 0.5 h [19] [%] | IC50 [20] [nM] | pKa [21] | also measured |
| --- | --- | --- | --- | --- | --- | --- | --- | --- | --- | --- | --- | --- | --- |
| NCC1(c2cccc(-c3ccnc4[nH]nc(C(F)(F)F)c34)c2)COC1 | 1.7 | > 10000 | 6 | 1020 | 392 | 62 | 1.2 | 210 | 100 | 77 | > 10000 | 7.6 | Papp A→B at 2 h [2]: 19 ×10⁻⁶ cm/s; efflux ratio [10]: 2.4; clearance [11]: 12 mL/min/kg; half-life [12]: 6.2 h; half-life [13]: 5.1 h; clearance [14]: 9 mL/min/kg; bioavailability [15]: 67%; bioavailability [16]: 46%; solubility thermodynamic [17]: 515 µM (≈ 179 µg/mL); Drug uptake(free) [22]: 0.19 µM; Drug uptake(free) [23]: 0.4 µM; Ki [24]: 1700 nM; Activity [25]: Active; inhibition [26]: Active; IC50 [27]: 1000 nM |
| Cc1cc(-c2ccnc3[nH]nc(C(F)(F)F)c23)cc(C2(CN)COC2)c1 | 2.2 | > 10000 | 8 | 286 | 542 |  |  | 450 | 86 | 59 | 2500 | 7.9 | inhibition (INH) [28]: Active; inhibition (INH) [29]: Active; inhibition (INH) [30]: Active |
| Cc1cc(-c2ccnc3[nH]nc(C(F)(F)F)c23)cc(C2(CN)CCC2)c1 | 2.9 | 700 | 3 | 60 | 135 |  |  | 60 | 81 | 56 | 650 | 8.8 | inhibition (INH) [31]: Active; inhibition (INH) [32]: Active; inhibition (INH) [33]: Active |
| CC(C)(C#N)c1cccc(-c2ccnc3[nH]ccc23)n1 | 3.4 |  | 3 | 110 | 12 | 42 | 0.3 |  |  |  |  |  | Ki [34]: 110 nM; Ki [35]: 210 nM; Ki [36]: 6 nM; Ki [37]: 3 nM; Ki [38]: 100 nM; Ki [39]: 13 nM; CL free [40]: 156 µL/min; CL free [41]: 24 µL/min; Vd [42]: 0.99 L/kg |
